# Test results as given in paper PMC12367851, “In vitro CB1 receptor activity of halogenated indazole synthetic cannabinoid receptor agonists” (Archives of Toxicology, 2025).
# Where two headings read alike, the source gives them in different places.
# Experiments:
# human CB1 receptor = human CB1 receptor (Homo sapiens, UniProt P21554); experiment: AequoScreen CB1 assay (intracellular Ca2+ release, CHO-K1 cells, apoaequorin/Gα16); settings: for Emax: CHO-K1, read-out: Efficacy (% of JWH-018) Emax; for Efficacy (Emax) Mean Diff: Brown-Forsythe and Welch ANOVA; for fold less potent than the butyl (ADB-5′Br-BUTINACA): brominated ADB SCRAs with different tails; for fold difference of each other (potency): brominated SCRAs with pent-4-enyl, butyl and pentyl tails; for fold weaker in potency than JWH-018: EC50 ratio vs JWH-018
# CB1 receptor [1] = molecular target: CB1 receptor; design: method as in Deventer et al. [2023b]; settings: AequoScreen / Ca2+ release assay, ref Deventer et al. [2023b], cited from earlier work
# CB1 receptor [2] = settings: β-arrestin 2 recruitment, cited from earlier work
# [3] = Compound 1 vs Compound 2 = ADB-5’Cl-BUTINACA
# [4] = Compound 1 vs Compound 2 = MDMB-5’Cl-BUTINACA
# [5] = Compound 1 vs Compound 2 = MMB-5’Cl-BUTINACA
# [6] = Compound 1 vs Compound 2 = ADB-4en-5’Br-PINACA
# [7] = Compound 1 vs Compound 2 = ADB-5’Br-PINACA
# [8] = Compound 1 vs Compound 2 = ADB-5’Br-BUTINACA
# [9] = Compound 1 vs Compound 2 = MMB-5’F-BUTINACA
# [10] = Compound 1 vs Compound 2 = AB-5’Cl-BUTINACA
# [11] = Compound 1 vs Compound 2 = MDMB-5’Br-BUTINACA
# [12] = Compound 1 vs Compound 2 = ADB-BUTINACA
# [13] = EC50 ratio vs non-halogenated analog ADB-BUTINACA
# [14] = Compound 1 vs Compound 2 = ADB-5’F-BUTINACA
# [15] = Compound 1 vs Compound 2 = MDMB-5’F-BUTINACA
# [16] = ref Deventer et al. [2023b], read-out: EC50
# [17] = Compound 1 vs Compound 2 = ADB-5’Br-FUBINACA
# [18] = Compound 1 vs Compound 2 = MDMB-INACA
# [19] = Compound 1 vs Compound 2 = MDMB-4en-5’Br-PINACA (also printed MDMB-5’Br-4en-PINACA)
# [20] = Compound 1 vs Compound 2 = MDMB-BUTINACA
# Sequence of human CB1 receptor (P21554 whole entry): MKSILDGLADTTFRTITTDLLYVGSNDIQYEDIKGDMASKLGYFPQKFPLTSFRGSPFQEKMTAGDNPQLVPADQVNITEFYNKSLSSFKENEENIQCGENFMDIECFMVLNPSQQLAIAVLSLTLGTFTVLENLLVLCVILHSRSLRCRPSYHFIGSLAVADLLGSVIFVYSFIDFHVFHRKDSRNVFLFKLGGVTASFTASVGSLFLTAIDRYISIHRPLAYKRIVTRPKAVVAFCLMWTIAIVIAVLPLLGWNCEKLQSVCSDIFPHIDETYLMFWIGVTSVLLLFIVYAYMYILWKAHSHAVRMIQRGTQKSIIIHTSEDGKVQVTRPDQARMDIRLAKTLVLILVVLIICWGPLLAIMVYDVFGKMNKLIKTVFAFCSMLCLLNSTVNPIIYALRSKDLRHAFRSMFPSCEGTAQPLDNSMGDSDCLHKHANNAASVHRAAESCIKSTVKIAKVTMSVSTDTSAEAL
structure (smiles),measurement,setting,value
"C=CCCCn1nc(C(=O)NC(C(=O)OC)C(C)(C)C)c2ccccc21 (stereo not drawn) [MDMB-4en-PINACA, reference compound]",EC50,human CB1 receptor,17.9 nM
same,Emax,human CB1 receptor,109%
CCCCn1nc(C(=O)NC(C(N)=O)C(C)C)c2cc(Cl)ccc21 (stereo not drawn) [AB-5′Cl-BUTINACA],EC50,human CB1 receptor,57.7 nM
same,Emax,human CB1 receptor,112%
same,Efficacy (Emax) Mean Diff,human CB1 receptor; [3],-0.67
same,Efficacy (Emax) Mean Diff,human CB1 receptor; [4],2.14
same,Efficacy (Emax) Mean Diff,human CB1 receptor; [5],2.74
CC(C)(C)C(NC(=O)c1nn(Cc2ccc(F)cc2)c2ccc(Br)cc12)C(N)=O (stereo not drawn) [ADB-5′Br-FUBINACA],EC50,human CB1 receptor,42.1 nM
same,Emax,human CB1 receptor,112%
same,Efficacy (Emax) Mean Diff,human CB1 receptor; [6],1.04
same,Efficacy (Emax) Mean Diff,human CB1 receptor; [7],4.13
same,fold less potent than the butyl (ADB-5′Br-BUTINACA),human CB1 receptor; EC50 ratio,2.3 fold
"CCCCCn1nc(C(=O)NC(C(N)=O)C(C)(C)C)c2cc(Br)ccc21 (stereo not drawn) [ADB-5′Br-PINACA, N-(1-amino-3,3-dimethyl-1-oxobutan-2-yl)−5-bromo-1-pentyl-1H-indazole-3-carboxamide]",EC50,human CB1 receptor,19.8 nM
same,Emax,human CB1 receptor,108%
same,Efficacy (Emax) Mean Diff,human CB1 receptor; [6],-3.10
same,fold difference of each other (potency),human CB1 receptor,≤ 1.4 fold
CCCCn1nc(C(=O)NC(C(=O)OC)C(C)C)c2cc(Br)ccc21 (stereo not drawn) [MMB-5′Br-BUTINACA],EC50,human CB1 receptor,259 nM
same,Emax,human CB1 receptor,105%
same,Efficacy (Emax) Mean Diff,human CB1 receptor; [8],-4.38
same,Efficacy (Emax) Mean Diff,human CB1 receptor; [5],-3.81
same,Efficacy (Emax) Mean Diff,human CB1 receptor; [9],-1.32
CCCCn1nc(C(=O)NC(C(=O)OC)C(C)C)c2cc(Cl)ccc21 (stereo not drawn) [MMB-5′Cl-BUTINACA],EC50,human CB1 receptor,148 nM
same,Emax,human CB1 receptor,109%
same,Efficacy (Emax) Mean Diff,human CB1 receptor; [3],-3.40
same,Efficacy (Emax) Mean Diff,human CB1 receptor; [4],-0.60
CCCCn1nc(C(=O)NC(C(N)=O)C(C)C)c2cc(Br)ccc21 (stereo not drawn) [AB-5′Br-BUTINACA],EC50,human CB1 receptor,44.6 nM
same,Emax,human CB1 receptor,115%
same,Efficacy (Emax) Mean Diff,human CB1 receptor; [10],2.92
same,Efficacy (Emax) Mean Diff,human CB1 receptor; Compound 1 vs Compound 2 = AB-5’F-BUTINACA,7.90
same,Efficacy (Emax) Mean Diff,human CB1 receptor; [8],5.08
same,Efficacy (Emax) Mean Diff,human CB1 receptor; [11],1.26
same,Efficacy (Emax) Mean Diff,human CB1 receptor; Compound 1 vs Compound 2 = MMB-5’Br-BUTINACA,9.47
CCCCn1nc(C(=O)NC(C(N)=O)C(C)(C)C)c2cc(Cl)ccc21 (stereo not drawn) [ADB-5′Cl-BUTINACA],EC50,human CB1 receptor,30.1 nM
same,Emax,human CB1 receptor,113%
same,Efficacy (Emax) Mean Diff,human CB1 receptor; [12],-12.82
same,Efficacy (Emax) Mean Diff,human CB1 receptor; [4],2.80
same,fold less potent than ADB-BUTINACA,human CB1 receptor; [13],1.4 fold
"CCCCn1nc(C(=O)NC(C(N)=O)C(C)(C)C)c2ccccc21 (stereo not drawn) [ADB-BUTINACA, reference compound]",EC50,CB1 receptor [1]; read-out: EC50,11.5 nM
same,EC50,"CB1 receptor [2]; ref Sparkes et al. [2022], read-out: EC50",7.72 nM
same,EC50,human CB1 receptor,21.5 nM
same,Emax,human CB1 receptor,126%
CCCCn1nc(C(=O)NC(C(=O)OC)C(C)C)c2cc(F)ccc21 (stereo not drawn) [MMB-5′F-BUTINACA],EC50,human CB1 receptor,26.4 nM
same,Emax,human CB1 receptor,107%
same,Efficacy (Emax) Mean Diff,human CB1 receptor; [14],-6.25
same,Efficacy (Emax) Mean Diff,human CB1 receptor; [15],-4.36
same,Efficacy (Emax) Mean Diff,human CB1 receptor; [5],-2.49
"CCCCn1nc(C(=O)NC(C(=O)OC)C(C)(C)C)c2ccccc21 (stereo not drawn) [MDMB-BUTINACA, reference compound]",EC50,human CB1 receptor,8.9 nM
same,Emax,human CB1 receptor,121%
"CCCCn1nc(C(=O)NC(C(N)=O)C(C)(C)C)c2cc(Br)ccc21 (stereo not drawn) [ADB-5′Br-BUTINACA, N-[1-amino-3,3-dimethyl-1-oxobutan-2-yl]−5-bromo-1-butyl-1H-indazole-3-carboxamide]",EC50,CB1 receptor [1]; read-out: EC50,12.5 nM
same,EC50,CB1 receptor [2]; [16],82.1 nM
same,EC50,human CB1 receptor,18 nM
same,Emax,human CB1 receptor,110%
same,Efficacy (Emax) Mean Diff,human CB1 receptor; [6],-1.26
same,Efficacy (Emax) Mean Diff,human CB1 receptor; [17],-2.30
same,Efficacy (Emax) Mean Diff,human CB1 receptor; [7],1.84
same,Efficacy (Emax) Mean Diff,human CB1 receptor; [3],-2.84
same,Efficacy (Emax) Mean Diff,human CB1 receptor; [14],-3.19
same,Efficacy (Emax) Mean Diff,human CB1 receptor; [12],-15.66
same,Efficacy (Emax) Mean Diff,human CB1 receptor; [11],-3.82
same,fold more potent than ADB-BUTINACA,human CB1 receptor; [13],1.2 fold
same,fold difference of each other (potency),human CB1 receptor,≤ 1.4 fold
"CC(C)(C)C(NC(=O)c1n[nH]c2ccc(Br)cc12)C(N)=O (stereo not drawn) [ADB-5′Br-INACA, N-[1-amino-3,3-dimethyl-1-oxobutan-2-yl]−5-bromo-1H-indazole-3-carboxamide]",EC50,human CB1 receptor,2290 nM
same,Emax,human CB1 receptor,111%
same,Efficacy (Emax) Mean Diff,human CB1 receptor; [6],-0.21
same,Efficacy (Emax) Mean Diff,human CB1 receptor; [8],1.04
same,Efficacy (Emax) Mean Diff,human CB1 receptor; [17],-1.25
same,Efficacy (Emax) Mean Diff,human CB1 receptor; [7],2.88
same,fold weaker in potency than JWH-018,human CB1 receptor,100 fold
same,fold less potent than the butyl (ADB-5′Br-BUTINACA),human CB1 receptor; EC50 ratio,127 fold
"COC(=O)C(NC(=O)c1n[nH]c2ccc(Br)cc12)C(C)(C)C (stereo not drawn) [MDMB-5′Br-INACA, methyl 2-[5-bromo-1H-indazole-3-carboxamido]−3,3-dimethylbutanoate]",EC50,human CB1 receptor,2200 nM
same,Emax,human CB1 receptor,110%
same,Efficacy (Emax) Mean Diff,human CB1 receptor; [18],-2.31
same,fold weaker in potency than JWH-018,human CB1 receptor,100 fold
same,fold more potent than MDMB-INACA,"human CB1 receptor; EC50 ratio, tail-less SCRAs",1.7 fold
"C=CCCCn1nc(C(=O)NC(C(=O)OC)C(C)(C)C)c2cc(Br)ccc21 (stereo not drawn) [MDMB-4en-5′Br-PINACA, methyl 2-{[5-bromo-1-(pent-4-en-1-yl)−1H-indazole-3-carbonyl]amino}−3,3-dimethylbutanoate]",EC50,human CB1 receptor,44.6 nM
same,Emax,human CB1 receptor,120%
same,Efficacy (Emax) Mean Diff,human CB1 receptor; Compound 1 vs Compound 2 = MDMB-4en-PINACA,11.19
same,fold less potent than MDMB-4en-PINACA,human CB1 receptor; EC50 ratio vs non-halogenated analog MDMB-4en-PINACA,2.5 fold
same,fold difference of each other (potency),human CB1 receptor,≤ 1.4 fold
"COC(=O)C(NC(=O)c1n[nH]c2ccc(C)cc12)C(C)(C)C (stereo not drawn) [MDMB-5′Me-INACA, methyl 3,3-dimethyl-2-[(5-methyl-1H-indazole-3-carbonyl)amino]butanoate]",EC50,human CB1 receptor,1370 nM
same,Emax,human CB1 receptor,113%
same,Efficacy (Emax) Mean Diff,human CB1 receptor; Compound 1 vs Compound 2 = MDMB-5’Br-INACA,3.46
same,Efficacy (Emax) Mean Diff,human CB1 receptor; [18],1.15
same,fold more potent than MDMB-5′Br-INACA,"human CB1 receptor; EC50 ratio, tail-less SCRAs",1.6 fold
same,fold more potent than MDMB-INACA,"human CB1 receptor; EC50 ratio, tail-less SCRAs",2.7 fold
CCCCn1nc(C(=O)NC(C(=O)OC)C(C)(C)C)c2cc(Br)ccc21 (stereo not drawn) [MDMB-5′Br-BUTINACA],EC50,human CB1 receptor,42.4 nM
same,Emax,human CB1 receptor,114%
same,Efficacy (Emax) Mean Diff,human CB1 receptor; [19],-6.38
same,Efficacy (Emax) Mean Diff,human CB1 receptor; [4],3.79
same,Efficacy (Emax) Mean Diff,human CB1 receptor; [15],2.52
same,Efficacy (Emax) Mean Diff,human CB1 receptor; [20],-7.53
same,fold less potent than MDMB-BUTINACA,human CB1 receptor; EC50 ratio vs non-halogenated analog MDMB-BUTINACA,4.8 fold
same,fold difference of each other (potency),human CB1 receptor,≤ 1.4 fold
CCCCn1nc(C(=O)NC(C(=O)OC)C(C)(C)C)c2cc(Cl)ccc21 (stereo not drawn) [MDMB-5′Cl-BUTINACA],EC50,human CB1 receptor,10.6 nM
same,Emax,human CB1 receptor,110%
same,Efficacy (Emax) Mean Diff,human CB1 receptor; [20],-11.32
"COC(=O)C(NC(=O)c1n[nH]c2ccccc12)C(C)(C)C (stereo not drawn) [MDMB-INACA, reference compound]",EC50,human CB1 receptor,3690 nM
same,Emax,human CB1 receptor,112%
"C=CCCCn1nc(C(=O)NC(C(N)=O)C(C)(C)C)c2cc(Br)ccc21 (stereo not drawn) [ADB-4en-5′Br-PINACA, N-(1-amino-3,3-dimethyl-1-oxobutan-2-yl)−5-bromo-1-(pent-4-en-1-yl)−1H-indazole-3-carboxamide]",EC50,human CB1 receptor,14.2 nM
same,Emax,human CB1 receptor,111%
same,Efficacy (Emax) Mean Diff,human CB1 receptor; [19],-8.94
same,fold difference of each other (potency),human CB1 receptor,≤ 1.4 fold
CCCCn1nc(C(=O)NC(C(N)=O)C(C)(C)C)c2cc(F)ccc21 (stereo not drawn) [ADB-5′F-BUTINACA],EC50,CB1 receptor [1]; read-out: EC50,18.3 nM
same,EC50,CB1 receptor [2]; [16],28.8 nM
same,EC50,human CB1 receptor,14.4 nM
same,Emax,human CB1 receptor,113%
same,Efficacy (Emax) Mean Diff,human CB1 receptor; [3],0.36
same,Efficacy (Emax) Mean Diff,human CB1 receptor; [12],-12.47
same,Efficacy (Emax) Mean Diff,human CB1 receptor; [15],1.89
same,fold more potent than ADB-BUTINACA,human CB1 receptor; [13],1.5 fold
CCCCn1nc(C(=O)NC(C(=O)OC)C(C)(C)C)c2cc(F)ccc21 (stereo not drawn) [MDMB-5′F-BUTINACA],EC50,human CB1 receptor,5.75 nM
same,Emax,human CB1 receptor,111%
same,Efficacy (Emax) Mean Diff,human CB1 receptor; [4],1.27
same,Efficacy (Emax) Mean Diff,human CB1 receptor; [20],-10.05
"CC(C)(C)[C@H](NC(=O)c1n[nH]c2ccccc12)C(N)=O [ADB-INACA, reference compound]",EC50,CB1 receptor [1],did not reach saturation
same,EC50,CB1 receptor [2]; ref Deventer et al. [2023b],did not reach saturation
CCCCn1nc(C(=O)NC(C(N)=O)C(C)C)c2cc(F)ccc21 (stereo not drawn) [AB-5′F-BUTINACA],EC50,human CB1 receptor,18.7 nM
same,Emax,human CB1 receptor,107%
same,Efficacy (Emax) Mean Diff,human CB1 receptor; [10],-4.99
same,Efficacy (Emax) Mean Diff,human CB1 receptor; [14],-6.01
same,Efficacy (Emax) Mean Diff,human CB1 receptor; [15],-4.12
same,Efficacy (Emax) Mean Diff,human CB1 receptor; [9],0.24
"CCCCCCCCCCn1nc(C(=O)NC(C(N)=O)C(C)(C)C)c2cc(Br)ccc21 (stereo not drawn) [N-(1-amino-3,3-dimethyl-1-oxobutan-2-yl)−5-bromo-1-decyl-1H-indazole-3-carboxamide]","Potency (EC50, nM)","human CB1 receptor; three-parameter logistic fit, n ≥ 3, triplicate, racemic standards",not even reaching saturation
